The values that follow come from ChEMBL document CHEMBL4421728, “Bach1 Inhibitors in Combination with Nrf2 Activators and Pharmaceutical Compositions Thereof” (2017).

Assay [1] addresses T1, Transcription regulator protein BACH1 (Homo sapiens) (UniProt O14867).
T1 sequence (whole entry): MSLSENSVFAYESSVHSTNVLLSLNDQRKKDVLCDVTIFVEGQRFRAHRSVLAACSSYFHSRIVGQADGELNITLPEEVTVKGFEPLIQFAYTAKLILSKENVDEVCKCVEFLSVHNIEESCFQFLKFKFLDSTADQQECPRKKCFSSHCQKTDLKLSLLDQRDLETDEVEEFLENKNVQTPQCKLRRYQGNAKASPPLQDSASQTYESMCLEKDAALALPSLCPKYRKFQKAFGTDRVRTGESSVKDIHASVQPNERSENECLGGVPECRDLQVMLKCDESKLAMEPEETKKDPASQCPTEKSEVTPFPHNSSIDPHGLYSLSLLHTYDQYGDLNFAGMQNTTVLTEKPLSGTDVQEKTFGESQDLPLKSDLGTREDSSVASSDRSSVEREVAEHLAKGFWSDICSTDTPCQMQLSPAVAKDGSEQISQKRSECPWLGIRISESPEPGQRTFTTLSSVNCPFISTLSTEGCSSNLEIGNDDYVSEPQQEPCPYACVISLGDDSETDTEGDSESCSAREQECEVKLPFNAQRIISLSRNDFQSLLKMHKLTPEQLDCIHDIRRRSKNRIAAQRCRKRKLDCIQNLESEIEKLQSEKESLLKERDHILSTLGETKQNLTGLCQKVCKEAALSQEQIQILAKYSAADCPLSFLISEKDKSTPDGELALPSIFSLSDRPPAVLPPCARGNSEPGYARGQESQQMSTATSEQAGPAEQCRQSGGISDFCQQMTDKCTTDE
Description: Inhibition of Bach1 in normal human lung fibroblasts assessed as induction of HMOX protein expression by measuring HMOX positive cells level at 0.078 uM incubated for 16 to 18 hrs by immunostaining relative to control DMSO. On the set-up: scale not given: the % may be the effect or the level left.

Assay [2] has as its target T1, Transcription regulator protein BACH1 (Homo sapiens). As to the kind of experiment: Inhibition of Bach1 in normal human lung fibroblasts assessed as induction of HMOX protein expression by measuring HMOX positive cells level at 0.156 uM incubated for 16 to 18 hrs by immunostaining relative to control DMSO. On the set-up: scale not given: the % may be the effect or the level left.

Assay [3] shares this target. As to the kind of experiment: Inhibition of Bach1 in normal human lung fibroblasts assessed as induction of HMOX protein expression by measuring HMOX positive cells level at 0.019 uM in presence of 0.03 uM Nrf2 activator DMF incubated for 16 to 18 hrs by immunostaining relative to control DMSO. On the set-up: scale not given: the % may be the effect or the level left.

The target is the same in assay [4]. Description: Inhibition of Bach1 in normal human lung fibroblasts assessed as induction of HMOX protein expression by measuring HMOX positive cells level at 0.078 uM in presence of 0.03 uM Nrf2 activator DMF incubated for 16 to 18 hrs by immunostaining relative to control DMSO. On the set-up: scale not given: the % may be the effect or the level left.
The target is the same in assay [5]. As to the kind of experiment: Inhibition of Bach1 in normal human lung fibroblasts assessed as induction of HMOX protein expression by measuring HMOX positive cells level at 0.019 uM in presence of 0.3 uM Nrf2 activator DMF incubated for 16 to 18 hrs by immunostaining relative to control DMSO. On the set-up: scale not given: the % may be the effect or the level left.

Assay [6] has the same target. As to the kind of experiment: Inhibition of Bach1 in normal human lung fibroblasts assessed as induction of HMOX protein expression by measuring HMOX positive cells level at 0.019 uM in presence of 1 uM Nrf2 activator DMF incubated for 16 to 18 hrs by immunostaining relative to control DMSO. On the set-up: scale not given: the % may be the effect or the level left.

Assay [7] shares this target. Description: Inhibition of Bach1 in normal human lung fibroblasts assessed as induction of HMOX protein expression by measuring HMOX positive cells level at 0.078 uM in presence of 1 uM Nrf2 activator DMF incubated for 16 to 18 hrs by immunostaining relative to control DMSO. On the set-up: scale not given: the % may be the effect or the level left.
For assay [8] the target is unchanged. Description: Inhibition of Bach1 in normal human lung fibroblasts assessed as induction of HMOX protein expression by measuring HMOX positive cells level at 0.078 uM in presence of 3 uM Nrf2 activator DMF incubated for 16 to 18 hrs by immunostaining relative to control DMSO. On the set-up: scale not given: the % may be the effect or the level left.
The target is the same in assay [9]. Description: Inhibition of Bach1 in normal human lung fibroblasts assessed as induction of HMOX protein expression by measuring HMOX positive cells level at 0.019 uM in presence of 10 uM Nrf2 activator DMF incubated for 16 to 18 hrs by immunostaining relative to control DMSO. On the set-up: scale not given: the % may be the effect or the level left.
For assay [10] the target is unchanged. Description: Inhibition of Bach1 in normal human lung fibroblasts assessed as induction of HMOX protein expression by measuring HMOX positive cells level at 0.039 uM in presence of 10 uM Nrf2 activator DMF incubated for 16 to 18 hrs by immunostaining relative to control DMSO. On the set-up: scale not given: the % may be the effect or the level left.
Assay [11] has the same target. As to the kind of experiment: Inhibition of Bach1 in normal human lung fibroblasts assessed as induction of HMOX protein expression by measuring HMOX positive cells level at 0.156 uM in presence of 10 uM Nrf2 activator DMF incubated for 16 to 18 hrs by immunostaining relative to control DMSO. On the set-up: scale not given: the % may be the effect or the level left.

Assay [12] has the same target. As to the kind of experiment: Inhibition of Bach1 in normal human lung fibroblasts assessed as induction of HMOX protein expression by measuring HMOX positive cells level at 0.019 uM in presence of 30 uM Nrf2 activator DMF incubated for 16 to 18 hrs by immunostaining relative to control DMSO. On the set-up: scale not given: the % may be the effect or the level left.

For assay [13] the target is unchanged. As to the kind of experiment: Inhibition of Bach1 in normal human lung fibroblasts assessed as induction of HMOX protein expression by measuring HMOX positive cells level at 0.039 uM in presence of 30 uM Nrf2 activator DMF incubated for 16 to 18 hrs by immunostaining relative to control DMSO. On the set-up: scale not given: the % may be the effect or the level left.

Assay [14] shares this target. Description: Inhibition of Bach1 in normal human lung fibroblasts assessed as induction of HMOX protein expression at 0.078 uM incubated for 16 to 18 hrs by immunostaining relative to control.
Assay [15] has the same target. As to the kind of experiment: Inhibition of Bach1 in normal human lung fibroblasts assessed as induction of HMOX protein expression at 0.019 uM in presence of 0.3 uM Nrf2 activator DMF incubated for 16 to 18 hrs by immunostaining relative to control.
The target is the same in assay [16]. As to the kind of experiment: Inhibition of Bach1 in normal human lung fibroblasts assessed as induction of HMOX protein expression at 0.019 uM in presence of 1 uM Nrf2 activator DMF incubated for 16 to 18 hrs by immunostaining relative to control.
For assay [17] the target is unchanged. As to the kind of experiment: Inhibition of Bach1 in normal human lung fibroblasts assessed as induction of HMOX protein expression at 0.078 uM in presence of 1 uM Nrf2 activator DMF incubated for 16 to 18 hrs by immunostaining relative to control.
For assay [18] the target is unchanged. As to the kind of experiment: Inhibition of Bach1 in normal human lung fibroblasts assessed as induction of HMOX protein expression at 0.156 uM in presence of 1 uM Nrf2 activator DMF incubated for 16 to 18 hrs by immunostaining relative to control.
The target is the same in assay [19]. Description: Inhibition of Bach1 in normal human lung fibroblasts assessed as induction of HMOX protein expression at 0.039 uM in presence of 10 uM Nrf2 activator DMF incubated for 16 to 18 hrs by immunostaining relative to control.

`COCCNC(=O)c1cnc2c(c1)nc(Nc1nc3ccc(OC(F)(F)F)cc3s1)n2C`: the Activity in assay [1] was 8.23%; in assay [2], 11.3%; in assay [3], 1.8%; in [4], 1.72%; in [5], 8.27%; in assay [6], 7.52%. The Activity in assay [7] is 29.4%; in [8], 55.2%; in assay [9], 92.6%; in assay [10], 92%; in assay [11], 99.7%; in assay [12], 84.9%. Also, the Activity in assay [13] was 87.5%. Moreover, the fold change (FC) in assay [14] was 1.46; in [15], 1.43; in [16], 1.57; in assay [17] it was 2.29; in assay [18] it was 2.87; in assay [19] it was 4.86.

In the case of `CN(C)C(=O)CNC(=O)c1ccc2c(c1)nc(Nc1nc3ccc(C(F)(F)F)cc3s1)n2C`, the Activity in assay [1] came out at 7.12%; in [2], 28.6%; in assay [3], 1.18%; in assay [4], 5.99%; in assay [5], 6.49%; in assay [6] it was 10.2%. The Activity in assay [7] amounted to 37.7%; in assay [8] it was 81.8%; in [9], 94.2%; in [10], 94.7%; in [11], 100%; in [12] it was 84.2%. Further, the Activity in [13] came to 90.4%. Further, the fold change (FC) in assay [14] was 1.59; in assay [15], 1.24; in assay [16] it was 1.68; in assay [17] it was 2.53; in assay [18], 4.08; in [19], 5.13.

For `CNC(=O)c1ccc2c(c1)nc(Nc1nc3ccc(OC(F)(F)F)cc3s1)n2C`, in assay [14], the fold change (FC) worked out at 1.92.

As for `Cn1c(Nc2nc3ccc(C(F)(F)F)cc3s2)nc2cc(C(=O)NCCOCCO)ccc21`, the Activity in [1] amounted to 74%; in assay [2] it was 96.3%; in assay [3], 4.94%; in [4], 33.5%; in assay [5] it was 7.63%; in assay [6], 26.4%. Further, the Activity was 84.8% in assay [7]; 90.3% in assay [8]; 96.1% in assay [9]; 99.2% in [10]; 100% in assay [11]; 84% in assay [12]. The Activity in assay [13] was determined as 91.9%. The fold change (FC) turned out to be 4.34 in assay [14]; 1.44 in [15]; 2.17 in assay [16]; 3.83 in assay [17]; 6.04 in assay [18]; 5.64 in [19].
